Data set [1] concerns Mouse cervical carcinoma U14. In words: In vivo anti-cancer efficacy, solid tumor model. The text has this: Mouse cervical carcinoma U14 model was used to compare in vivo anti-cancer efficacy of 15-methyl-2-hexadecenoic acid, 13-methyl-tetradecanoic acid and the chemotherapy drug cytoxan (CTX).
40 male ICR strain mice, weighing 19–22 g, were randomly divided into 4 groups of 10 each. U14 cervical carcinoma mass (about 2 mm^3 each) was transplanted subcutaneously into the right armpits of all animals following standard procedure. The test group was given 15-methyl-2-hexadecenoic acid and 13-methyl-tetradecanoic acid at 0.4 g/kg, respectively, intragastrically (i.g.) daily for 11 days. The positive control group was given a single dose of CTX i.g. (25 mg/kg) on day 1. Negative control group was given normal saline (N.S.) at 0.2 ml/10 g daily for 11 days. On the 12th day, all mice were sacrificed and the tumors were isolated and weighed. The tumor inhibition rate (TIR) was calculated and subject to t test.

The subject of data set [2] is K562 human leukemia cell line. Briefly: In vitro anti-cancer efficacy, K562, trypan blue dye exclusion, 48 hours. The data set is classed as cell-based. Particulars: for IC50 / IC90: Homo sapiens; for IC50: read-out: K562 IC50; for IC90: read-out: K562 IC90. Here is the method: (§1) The above compounds were dissolved in DMSO at stock concentration of 10 mg/ml and stored at 4° C. Before each experiment they were diluted to desired concentration with serum-free RPMI 1640 medium
1. K562 human leukemia cell line: K562 cells were maintained in RPMI 1640 medium with 5% fetal bovine serum at 37° C. under 5% CO2 atmosphere. 4×10^4 cells/well were plated on 96-well plate. After treatment with the test compounds and solvent control (DMSO) for 48 hours, numbers of live cells were counted by trypan blue dye exclusion.
(§2) Reagents and Methods: same as in Experiment 1.

For a further data set, the system named is Serum Hemolysinogenesis. The data set is classed as in vivo, mouse (ICR strain). Particulars: in words. Here is the method:
50 male ICR strain mice, weighing 20–23 g, were randomly divided into 5 groups of 10 each. The method of administration in each group was the same as above phagocytic function). However, on the 6th day after administration, 0.2 ml 3:5 (VN) sheep red blood cell (RBC) suspension was injected i.p. into each mouse. 4 days later (day 10), blood was drawn from all animals and serum was prepared and then diluted 600 times. 1 ml diluted serum was mixed with 0.5 ml 10% sheep RBC suspension. N.S. was used as blank control. All samples were incubated at 37° C. for 30 minutes, and centrifuged (2000 rev/min) for 5 minutes. The supernatant was collected for measurement of OD540 and HC50 was calculated.

Data set [3] has as its system Phagocytic Function of Reticuloendothelial System. The data set is classed as in vivo, mouse (ICR strain). Particulars: 400 mg/kg i.g.; in words. Here is the method: 50 female ICR strain mice, weighing 19–24 g, were randomly divided into 5 groups of 10 each. One group was given N.S. at 20 ml/kg i.g. as a normal control. A positive control group was given CTX i.g. at 25 mg/kg on day 1 and 6. A third group was given N-(13-methyl-tetradecanoyl)-4amino-1,2-benzenediol (Sample) only at 400 mg/kg i. g. The remaining two groups were given both CTX (25 mg/kg on day 1 and 6) and Sample (100 mg/kg and 400 mg/kg, respectively). All treatments except CTX were administered daily for 9 days. 30 minutes after the last administration, 0.15 ml Yidege (1:10) was injected into the tail vein of each mouse. 1 minute and 5 minutes after, blood was drawn and 20 μl serum was mixed with 0.1% […]. OD680 was measured and the clearance index K=(1 gOD1–1 gOD2)/(t2−t1) was calculated.

The test system of data set [4] is B16 mouse melanoma cell line. Briefly: In vitro anti-cancer efficacy, B16, SRB method, 48 hours. The data set is classed as cell-based. Particulars: for IC50 / IC90: Mus musculus; for IC50: read-out: B16 IC50; for IC90: read-out: B16 IC90. Here is the method: as §1
2. B16 mouse melanoma cell line: B16 cells were maintained under the same condition as above. 2×10^4 cells/well were plated on 48-well plate and left for 12 hours for attachment. Cells were then treated with the test compounds and solvent control for 48 hours. Numbers of live cells were determined by SRB method. Briefly, cells were fixed with 50 μl/well 15% TCA for 1 hour, and then washed three times with double-distilled water. After drying 50 μl/well 1% SRB dye was added and reacted for 10 minutes. Plate was washed with 1% acetic acid. 0.2 ml Tris buffer (pH 9.6) was added and OD510 was recorded.
as §2
For orientation: In SRB staining, fixed cells bind dye roughly in proportion to their protein.

Another data set has as its system Delayed Hypersensitivity. Briefly: Delayed hypersensitivity (sheep RBC). The data set is classed as in vivo, mouse (ICR strain). Particulars: in words. The protocol:
50 female ICR strain mice, weighing 18–21 g, were randomly divided into 5 groups of 10 each. The method of administration in each group was the same as above phagocytic function). However, on the 5th day after administration, each mouse was injected with 50 μl 10% sheep RBC suspension through tail vein. 4 days later (day 9), each mouse was injected intradermally with 20 μl 10 sheep RBC suspension or normal saline into metatarus of the left or right hind limbs, respectively. The digital thickness of each mouse was measured 24 hours later, and the difference in thickness between left and right digits was subject to t test analysis.

In data set [5] the test system is human breast carcinoma MCF7ras. The data set is classed as in vivo. Here is the method:
Thirty female Balb/c-nu/nu athymic mice, 6 weeks old, weighing 18–22 g, were housed in specific pathogen free (SPF) condition throughout the course of the experiment.
Subcutaneous transplantation of human breast carcinoma MCF7ras was carried out under aseptic condition. Tumor mass was cut into fragments (approximately 0.18×0.18×0.20 mm in size), and injected s.c. into the right mammary fat pad of each animal with a trocar. The mice were randomized into control and test groups of ten mice each. The day after transplantation, the mice in the test group were given through gavage 13-methyl-2-tetradecenoic acid at 400 mg/kg daily. The mice in two control groups were administered with CTX at 25 mg/kg and N.S. at 0.2 ml/10 g. All animals were sacrificed on day 23. The body weights and tumor weights were measured. The tumor inhibition rates (TIR) were determined by comparing the mean tumor weight of the test groups (T) with that of the control group (C) and expressed as a (C-T)/C percentage, and were analyzed by Student's test for statistical significance.

In the next data set the test system is HAC cells. Format: in vivo. Particulars: for Body Weight after treatment / Extension Rate (of life span) / Survival Time: test 0.4 g/kg i.g. daily till death, 5-FU 25 mg/kg i.g. day 1, 3, 5. The protocol: 30 female ICR strain mice, weighing 18–21 g, were randomly divided into 3 groups of 10 each. 0.2 ml of HAC cell suspension (10^7 cells/ml) was injected intraperitoneally (i.p.) into all animals. The test group was given 2-(12-Methyl-tridecyl)-5-mercapto-1,3,4-thiadiazole at 0.4 g/kg i.g. daily till death. The positive control group was given 5-Flurouracil (5-Fu) i.g. at 25 mg/kg on day 1, 3, and 5. The negative control group was given N.S. at 20 ml/kg daily as in test groups. The length of survival of each group was recorded and rate of extension of life span was calculated and subject to t test.

Where [6] appears, read: K562, Table 2, unit inferred, methods same as in Experiment 1.
[7] abbreviates: Table 2, unit inferred, methods same as in Experiment 1.

Converted amounts (≈) assume the structure as drawn. Read-outs that look alike come from different tables or passages of the source.

In the case of `CC(C)CCCCCCCCCCCC(=O)O` [13-methyl-tetradecanoic acid], the “TIR (tumor inhibition rate)” value in data set [1] (day 12, test compounds 0.4 g/kg i.g. daily 11 days, CTX 25 mg/kg i.g. single dose) turned out to be 64.6%. The “Tumor W.” value in data set [1] (day 12, test compounds 0.4 g/kg i.g. daily 11 days, CTX 25 mg/kg i.g. single dose, ± SD) came out at 0.93 ± 0.32 g. In addition, in data set [1] (mouse, in vivo), the “Body W. D1” value is 20.7 ± 0.7 g.
As usually defined, the IC50 is the concentration at which inhibition is half-maximal. One may read the IC90 as the concentration needed for an effect of 90%. In the case of `CC(C)CCCCCCCCCCCC(=O)Nc1ccc(O)c(O)c1` [Compound 1, N-(3,4-Dihydroxyphenyl)-13-methyl tetradecanamide], in data set [2] (K562, Table 1, 48 hours), the IC50 was 4.98 µg/mL (≈ 14.2 µM) and the IC90 turned out to be 10.1 µg/mL (≈ 28.9 µM). Besides, in the data set on Serum Hemolysinogenesis, the “effects on serum hemolysinogenesis in either normal or immune-compromised mouse” value is “no obvious effects”. Further, in data set [3], the “effect on the Clearance Index of Carbon grain in normal mouse” value was “no obvious effect”. Besides, in data set [4] (Table 1, 48 hours), the IC50 is 5.12 µg/mL (≈ 14.6 µM) and the IC90 was found to be 9.28 µg/mL (≈ 26.6 µM). Moreover, the “inhibitory effect to the delayed hypersensitivity of both normal and CTX-treated mice” value with Delayed Hypersensitivity was “no inhibitory effect”.
Take `CC(C)CCCCCCCCCC=CC(=O)O` [13-methyl-2-tetradecenoic acid]: the “Body weight D1” value in data set [5] (MCF7ras nude mice, day 1 (baseline), X ± SD) came to 20.3 ± 0.5 g. Further, in data set [5] (MCF7ras nude mice, day 23, test 400 mg/kg gavage daily, CTX 25 mg/kg), the “Body weight D23” value is on record as 24.4 ± 1.1 g. For the same compound, the “TIR (tumor inhibition rate, (C-T)/C percentage)” value in data set [5] (day 23, test 400 mg/kg gavage daily, CTX 25 mg/kg) is given as 74.3%. For the same compound, the “Tumor W.” value in data set [5] (day 23, test 400 mg/kg gavage daily, CTX 25 mg/kg, X ± SD) is reported as 0.47 ± 0.31 g.
Take `CC(C)CCCCCCCCCCCc1nnc(S)s1` [Compound 30, 2-(12-Methyl-tridecyl)-5-mercapto-1,3,4-thiadazole]: in the data set on HAC cells (HAC mice, X ± SD), the “Body Weight before treatment” value turned out to be 19.6 ± 1.3 g and the “Survival Time” value is on record as 16.7 ± 1.8 days. In the data set with HAC cells (HAC mice), the “Body Weight after treatment” value worked out at 46.5 ± 6.1 g and the “Extension Rate (of life span)” value amounted to 72.2%. Besides, in data set [2] (Table 1, 48 hours), the “K562 IC50” value was 6.10 µg/mL and the “K562 IC90” value is 8.75 µg/mL. In data set [4] (Table 1, 48 hours), the “B16 IC50” value was determined as 5.16 µg/mL and the “B16 IC90” value came out at 8.05 µg/mL.
For `O=c1[nH]cc(F)c(=O)[nH]1` [Compound 5-FU, 5-Flurouracil, reference compound], in the data set on HAC cells (HAC mice), the “Body Weight after treatment” value was determined as 43.4 ± 12.8 g and the “Extension Rate (of life span)” value was 47.4%. Further, the “Survival Time” value in the data set on HAC cells (HAC mice, X ± SD) is 14.3 ± 1.5 days. In the data set with HAC cells (mouse, in vivo), the “Body Weight before treatment” value was determined as 19.5 ± 1.2 g.
Turning to `CC(C)CCCCCC=CC(=O)O` [Compound 33, 9-Methyl-2-decenoic acid], the IC50 amounted to 51.2 µg/mL (≈ 278 µM) in data set [2] (K562, Table 1, 48 hours); 26.7 µg/mL (≈ 145 µM) in data set [2] (setting [6]); 40.5 µg/mL (≈ 220 µM) in data set [4] (setting [7]). The IC90 turned out to be 51.2 µg/mL (≈ 278 µM) in data set [2] (setting [6]) and 91 µg/mL (≈ 494 µM) in data set [4] (setting [7]).
Turning to `CC(C)CCCCCCCC(=O)O` [9-methyl-decanoic acid, reference compound], in data set [2] (setting [6]), the IC50 was 55.5 µg/mL (≈ 298 µM) and the IC90 came to 87 µg/mL (≈ 467 µM). Moreover, in data set [4] (setting [7]), the IC50 amounted to 97 µg/mL (≈ 521 µM) and the IC90 stood at 280 µg/mL (≈ 1500 µM).
Consider `CC(C)CCCCCCCCCCC(=O)c1ccc(O)cc1O` [Compound 18, (2,4,-dihydroxy phenyl)-12-methyl tridecanone], for which, in data set [2] (Table 1, 48 hours), the “K562 IC50” value came out at 6.42 µg/mL and the “K562 IC90” value is 8.90 µg/mL. In data set [4] (Table 1, 48 hours), the “B16 IC50” value was found to be 5.91 µg/mL and the “B16 IC90” value came to 8.12 µg/mL.
With `CC(C)CCCCCCCCCCCC(=O)N1CCC[C@H]1C(=O)O` [Compound 10, N-(13-methyl-tetradecanoyl)-L-proline], in data set [2] (K562, 48 h), the IC50 amounted to 17.2 µg/mL (≈ 50.7 µM) and the IC90 was 25.3 µg/mL (≈ 74.5 µM). Besides, in data set [4] (48 h), the IC50 was 15.2 µg/mL (≈ 44.8 µM) and the IC90 stood at 17.3 µg/mL (≈ 51 µM).
As to `CC(C)CCCCCCCCCCCC(=O)N[C@@H](C)C(=O)O` [Compound 4, N-(13-methyl-tetradecanoyl)-L-alanine], in data set [2] (K562, Table 1, 48 hours), the IC50 was 11.2 µg/mL (≈ 35.7 µM) and the IC90 was determined as 20.7 µg/mL (≈ 66 µM). Moreover, in data set [4] (Table 1, 48 hours), the IC50 amounted to 14.8 µg/mL (≈ 47.2 µM) and the IC90 was found to be 18.4 µg/mL (≈ 58.7 µM).
Take `CC(C)CCCCCCCCCCCC(=O)N1CCOCC1` [Compound 16, N-(13-Methyl-tetradecanoyl)morpholine]: the IC50 turned out to be 15.9 µg/mL (≈ 51 µM) in data set [2] (K562, Table 1, 48 hours) and 11.9 µg/mL (≈ 38.2 µM) in data set [4] (Table 1, 48 hours). The IC90 came out at 20.4 µg/mL (≈ 65.5 µM) in data set [2] (K562, Table 1, 48 hours) and 19.2 µg/mL (≈ 61.6 µM) in data set [4] (Table 1, 48 hours).
In the same order, the values of `CC(C)CCCCCCCCCCCC(=O)N[C@@H](C=O)[C@@H](O)[C@H](O)[C@H](O)CO` [Compound 11, N-(13-methyl-tetradecanoyl)-2-amino-2-deoxyglucose] are 24.3 µg/mL (≈ 60.2 µM), 24.5 µg/mL (≈ 60.7 µM), 38.1 µg/mL (≈ 94.4 µM) and 34.6 µg/mL (≈ 85.7 µM).

The values above are taken from patent publication US7109364B2, “Group of anti-cancer compounds with specific structure and their production method” (priority 2000, dated 2006).
